According to US20160216351A1, “METHOD FOR DETECTING OXIDATION/REDUCTION REACTION IN VIVO” (KYUSHU UNIVERSITY, NATIONAL UNIVERSITY CORPORATION, priority 2013, published 2016):

How the values were obtained:
[1] = test system: C57BL6 mice; experiment: Metabolic imaging in mice using sequential ReMI; assay type: in vivo
Excerpt: Female C57BL6 mice (5 weeks old) were purchased from Japan SLC, Inc. (Hamamatsu, Japan) and acclimated for one week before the experiment. Mice were 6 to 8 weeks old at the time of the experiment (body weight: 20-30 g), and five mice were kept in each cage in a room that was adjusted to a 24-hour cycle rhythm, wherein the temperature and moisture of the room were also adjusted. Food and water were given ad libitum. All the procedures and animal care were approved by the Animal Experiment Ethics Committee of Kyushu University and carried out in accordance with guidelines for animal experiments established by Kyushu University.
Mice were anesthetized with 2% isoflurane in the FADH experiment or with urethane (2 g/kg) in the CoQ0H experiment and immobilized with a skin adhesive tape, wherein the stomach was placed to the lower side. During the experiment, the temperature of mice was kept at 37+/−1° C. with a warm current of air. Subsequently, mice were placed in a resonator and ReMI measurement was started. ReMI images of the lower abdominal region were examined after administering an 8 mM CoQ0 alkaline solution (800 μL) to the rectum or administering an FAD/NADH solution intramuscularly.
ReMI images were obtained by using a DNP-MRI system manufactured at Kyushu University in an experiment using FADH and a Philips prototype system in an experiment using CoQ0. The ReMI experiment was conducted using the abovementioned parameters. Radical metabolic images (redox maps) were obtained by calculating changes in ReMI intensity in each pixel among the first four ReMI images (from a semi-logarithmic plot line of each pixel on sequential images).

[2] = test system: mitochondria collected from a rat; experiment: ReMI metabolic imaging in the presence of mitochondria (phantom tubes); assay type: in vitro ADME; details: mitochondria fractions of various concentrations
Description: The ReMI experiment was conducted by using a DNP-MRI system manufactured at Kyushu University. The DNP-MRI system was constituted by using an external magnet for an EPR device (JES-ES20, JEOL Ltd.) and two axis field gradient coils for CW-EPR imaging. A resonator was constituted of a surface coil for ESR irradiation, an NMR cross coil within a saddle, and a solenoid for transmission and signal reception. An ESR irradiation coil was disposed between two NMR coils. […] A surface coil (diameter: 20 mm) was used for ESR irradiation, and an NMR coil assembly was constituted of an NMR transmission saddle coil (90 mm i.d., 175 mm in length) and a solenoid reception coil (40 mm i.d., 60 mm in length) having a bandwidth of 1 kHz. The maximum transmission power was 100 W. The ReMI experiment was conducted by a spin echo method. The ReMI experiment was conducted under the following conditions: EPR irradiation power, 12 W; flip angle, 90 degrees; TEPR×repetition time (TR)×echo time (TE)=500×1000×40 ms; average number=1; slice thickness, 30 mm; and a 64-phase modulation step. For the image field (32×32 mm), 64×64 matrix was used.
To a phantom tube filled with mitochondria collected from a rat was added FADH or CoQ0H in an experiment. […] The metabolic rates (decreasing rates) of FADH and CoQ0H were calculated from changes in the first four image intensities after the reaction with mitochondria.

pharmacokinetic map (decreasing rate) ([1]; calculated from first four ReMI images): constant
metabolism in the muscle by ReMI scanning ([1]; intramuscular administration): metabolized slowly
ReMI image intensity during the test period ([1]; intramuscular administration in both legs, imaging every two minutes, 14 minutes): stable
redox map (intensity declining speed) ([2]; calculated from first four image intensities): no change
change in ReMI image intensity over time after reaction with mitochondria ([2]; images every two minutes, EPR irradiation 572.5 MHz): no reaction with mitochondria
Substance: FADH
distribution in fusion images of MRI and ReMI ([1]; FADH intramuscular, CoQ0H rectal): site-specifically distributed in the legs
